From ChEMBL document CHEMBL4371069, “Click chemistry for improvement in selectivity of quinazoline-based kinase inhibitors for mutant epidermal growth factor receptors” (Bioorg Med Chem Lett, 2019)
pIC50: −log10 of the molar value.

system: PC-9; experiment: Antiproliferative activity against human PC9 cells harboring EGFR exon-19 del mutant after 72 hrs by EZ-Cytox assay; format: functional, cell-based; conditions: PC-9, 72 h

SMILES | pIC50
C=CC(=O)Nc1cc2c(Nc3ccc(F)c(Cl)c3)ncnc2cc1OCc1cn(Cc2ccc(F)cc2)nn1 | 9.00
C=CC(=O)Nc1cc2c(Nc3ccc(F)c(Cl)c3)ncnc2cc1OCc1cn(Cc2ccc(Cl)cc2)nn1 | 9.05
C=CC(=O)Nc1cc2c(Nc3ccc(F)c(Cl)c3)ncnc2cc1OCc1cn(Cc2cccc(F)c2)nn1 | 9.05

biological target: CYP3A4 (Homo sapiens, UniProt P08684); experiment: Inhibition of CYP3A4 in human liver microsomes assessed as residual activity at 10 uM using midazolam as substrate preincubated for 5 mins followed by NADPH addition and measured after 15 mins by LC-MS/MS analysis relative to control; format: ADME; conditions: probe midazolam, read-out: Activity
Sequence (P08684 whole entry): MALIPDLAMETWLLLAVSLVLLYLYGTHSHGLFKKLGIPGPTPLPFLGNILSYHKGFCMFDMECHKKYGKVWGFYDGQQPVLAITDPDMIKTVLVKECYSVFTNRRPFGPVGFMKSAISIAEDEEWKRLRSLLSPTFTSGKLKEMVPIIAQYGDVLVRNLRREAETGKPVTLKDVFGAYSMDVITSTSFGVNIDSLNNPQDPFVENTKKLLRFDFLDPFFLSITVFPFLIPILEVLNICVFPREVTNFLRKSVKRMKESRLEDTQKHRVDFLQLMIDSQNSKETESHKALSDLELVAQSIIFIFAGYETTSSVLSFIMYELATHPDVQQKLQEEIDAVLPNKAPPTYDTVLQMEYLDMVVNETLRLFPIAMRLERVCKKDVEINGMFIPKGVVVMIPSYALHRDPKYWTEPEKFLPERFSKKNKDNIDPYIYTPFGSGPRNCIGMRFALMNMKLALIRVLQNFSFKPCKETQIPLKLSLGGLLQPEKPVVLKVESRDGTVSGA

SMILES | activity at 0.25 h, 10 µM
C=CC(=O)Nc1cc2c(Nc3ccc(F)c(Cl)c3)ncnc2cc1OCc1cn(Cc2ccc(F)cc2)nn1 | 55.3%
C=CC(=O)Nc1cc2c(Nc3ccc(F)c(Cl)c3)ncnc2cc1OCc1cn(Cc2ccc(Cl)cc2)nn1 | 77.6%
C=CC(=O)Nc1cc2c(Nc3ccc(F)c(Cl)c3)ncnc2cc1OCc1cn(Cc2cccc(F)c2)nn1 | 50.1%

biological target: T1, CYP2C8 (Homo sapiens, UniProt P10632); experiment: Inhibition of CYP2C8 in human liver microsomes assessed as residual activity at 10 uM using amiodiaquine as substrate preincubated for 5 mins followed by NADPH addition and measured after 15 mins by LC-MS/MS analysis relative to control; format: ADME; conditions: probe amiodiaquine, read-out: Activity
T1 sequence (P10632 whole entry): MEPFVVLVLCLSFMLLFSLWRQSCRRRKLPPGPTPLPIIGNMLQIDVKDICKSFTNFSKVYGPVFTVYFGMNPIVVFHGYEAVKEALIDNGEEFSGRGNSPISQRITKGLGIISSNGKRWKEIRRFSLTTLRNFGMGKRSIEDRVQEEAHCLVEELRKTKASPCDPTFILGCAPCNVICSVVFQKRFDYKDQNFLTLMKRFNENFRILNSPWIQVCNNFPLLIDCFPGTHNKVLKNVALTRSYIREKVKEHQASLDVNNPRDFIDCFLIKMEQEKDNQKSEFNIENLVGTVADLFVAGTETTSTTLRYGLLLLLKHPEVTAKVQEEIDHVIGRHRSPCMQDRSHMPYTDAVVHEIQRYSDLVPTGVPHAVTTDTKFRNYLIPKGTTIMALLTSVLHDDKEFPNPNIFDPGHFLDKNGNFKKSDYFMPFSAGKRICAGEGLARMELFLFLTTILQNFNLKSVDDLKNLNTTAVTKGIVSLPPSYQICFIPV

SMILES | activity at 0.25 h, 10 µM
C=CC(=O)Nc1cc2c(Nc3ccc(F)c(Cl)c3)ncnc2cc1OCc1cn(Cc2ccc(F)cc2)nn1 | 36.4%
C=CC(=O)Nc1cc2c(Nc3ccc(F)c(Cl)c3)ncnc2cc1OCc1cn(Cc2ccc(Cl)cc2)nn1 | 48.7%
C=CC(=O)Nc1cc2c(Nc3ccc(F)c(Cl)c3)ncnc2cc1OCc1cn(Cc2cccc(F)c2)nn1 | 35.6%

system: A549; experiment: Antiproliferative activity against human A549 cells harboring wild-type EGFR after 72 hrs by EZ-Cytox assay; format: ADME, cell-based; conditions: A549, 72 h

SMILES | pIC50
C=CC(=O)Nc1cc2c(Nc3ccc(F)c(Cl)c3)ncnc2cc1OCc1cn(Cc2ccc(F)cc2)nn1 | 5.37
C=CC(=O)Nc1cc2c(Nc3ccc(F)c(Cl)c3)ncnc2cc1OCc1cn(Cc2ccc(Cl)cc2)nn1 | 5.69
C=CC(=O)Nc1cc2c(Nc3ccc(F)c(Cl)c3)ncnc2cc1OCc1cn(Cc2cccc(F)c2)nn1 | 5.26

biological target: Epidermal growth factor receptor (Homo sapiens, UniProt P00533); experiment: not given; format: ADME, cell-based, Sf21; conditions: not given
Sequence (P00533 whole entry): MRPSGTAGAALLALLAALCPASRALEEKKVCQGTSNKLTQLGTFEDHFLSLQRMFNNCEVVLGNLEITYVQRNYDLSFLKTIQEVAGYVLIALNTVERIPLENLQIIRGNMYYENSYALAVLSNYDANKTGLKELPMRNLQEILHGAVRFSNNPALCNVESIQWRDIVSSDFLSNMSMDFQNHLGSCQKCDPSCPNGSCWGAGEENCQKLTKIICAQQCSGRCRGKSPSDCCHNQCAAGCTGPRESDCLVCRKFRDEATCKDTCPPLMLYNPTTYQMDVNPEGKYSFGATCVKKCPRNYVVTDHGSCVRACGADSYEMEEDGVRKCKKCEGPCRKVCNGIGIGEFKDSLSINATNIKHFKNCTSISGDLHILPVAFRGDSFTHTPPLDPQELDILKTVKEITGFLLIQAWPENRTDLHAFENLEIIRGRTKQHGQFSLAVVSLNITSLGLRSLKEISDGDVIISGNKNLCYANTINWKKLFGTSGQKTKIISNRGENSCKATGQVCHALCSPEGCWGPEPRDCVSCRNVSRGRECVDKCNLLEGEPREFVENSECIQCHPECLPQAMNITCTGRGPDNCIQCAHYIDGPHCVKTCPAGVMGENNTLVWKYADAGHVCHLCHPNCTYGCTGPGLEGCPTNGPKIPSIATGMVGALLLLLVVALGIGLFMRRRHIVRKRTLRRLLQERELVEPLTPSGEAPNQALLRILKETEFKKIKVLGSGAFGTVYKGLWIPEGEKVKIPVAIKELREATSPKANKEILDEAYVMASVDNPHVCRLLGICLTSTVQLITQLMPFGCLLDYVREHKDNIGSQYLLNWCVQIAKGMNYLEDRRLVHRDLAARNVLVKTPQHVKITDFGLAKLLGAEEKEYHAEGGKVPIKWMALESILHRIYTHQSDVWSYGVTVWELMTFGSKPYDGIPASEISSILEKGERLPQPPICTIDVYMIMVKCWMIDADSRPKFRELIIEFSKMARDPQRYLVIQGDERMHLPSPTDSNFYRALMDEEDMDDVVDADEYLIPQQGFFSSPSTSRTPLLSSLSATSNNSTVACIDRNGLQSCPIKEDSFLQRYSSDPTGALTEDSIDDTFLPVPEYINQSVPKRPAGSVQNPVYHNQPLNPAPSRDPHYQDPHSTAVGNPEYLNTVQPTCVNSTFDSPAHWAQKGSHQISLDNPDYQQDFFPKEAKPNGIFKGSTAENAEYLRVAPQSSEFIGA

SMILES | pIC50
C=CC(=O)Nc1cc2c(Nc3ccc(F)c(Cl)c3)ncnc2cc1OCc1cn(Cc2ccc(F)cc2)nn1 | 7.35
C=CC(=O)Nc1cc2c(Nc3ccc(F)c(Cl)c3)ncnc2cc1OCc1cn(Cc2ccc(Cl)cc2)nn1 | 7.21
C=CC(=O)Nc1cc2c(Nc3ccc(F)c(Cl)c3)ncnc2cc1OCc1cn(Cc2cccc(F)c2)nn1 | 7.17

biological target: CYP2D6 (Homo sapiens, UniProt P10635); experiment: Inhibition of CYP2D6 in human liver microsomes assessed as residual activity at 10 uM using dextromethorphan as substrate preincubated for 5 mins followed by NADPH addition and measured after 15 mins by LC-MS/MS analysis relative to control; format: ADME; conditions: probe dextromethorphan, read-out: Activity
Sequence (P10635 whole entry): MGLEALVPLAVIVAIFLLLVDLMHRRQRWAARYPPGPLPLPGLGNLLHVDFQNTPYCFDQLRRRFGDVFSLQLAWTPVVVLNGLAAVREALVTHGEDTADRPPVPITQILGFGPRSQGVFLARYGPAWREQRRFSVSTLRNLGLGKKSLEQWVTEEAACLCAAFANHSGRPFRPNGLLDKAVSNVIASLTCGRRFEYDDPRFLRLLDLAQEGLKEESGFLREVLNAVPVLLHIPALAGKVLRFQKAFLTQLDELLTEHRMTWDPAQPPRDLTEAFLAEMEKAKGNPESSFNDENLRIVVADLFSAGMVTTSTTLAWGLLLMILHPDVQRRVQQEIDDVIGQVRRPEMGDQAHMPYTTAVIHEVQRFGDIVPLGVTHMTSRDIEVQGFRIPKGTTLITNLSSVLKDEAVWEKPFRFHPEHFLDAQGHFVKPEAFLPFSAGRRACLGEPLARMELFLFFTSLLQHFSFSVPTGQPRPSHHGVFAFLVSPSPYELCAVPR

SMILES | activity at 0.25 h, 10 µM
C=CC(=O)Nc1cc2c(Nc3ccc(F)c(Cl)c3)ncnc2cc1OCc1cn(Cc2ccc(F)cc2)nn1 | 12.2%
C=CC(=O)Nc1cc2c(Nc3ccc(F)c(Cl)c3)ncnc2cc1OCc1cn(Cc2ccc(Cl)cc2)nn1 | 24.4%
C=CC(=O)Nc1cc2c(Nc3ccc(F)c(Cl)c3)ncnc2cc1OCc1cn(Cc2cccc(F)c2)nn1 | 14.9%

biological target: CYP2C19 (Homo sapiens, UniProt P33261); experiment: Inhibition of CYP2C19 in human liver microsomes assessed as residual activity at 10 uM using S-mephenytoin as substrate preincubated for 5 mins followed by NADPH addition and measured after 15 mins by LC-MS/MS analysis relative to control; format: ADME; conditions: probe S-mephenytoin, read-out: Activity
Sequence (P33261 whole entry): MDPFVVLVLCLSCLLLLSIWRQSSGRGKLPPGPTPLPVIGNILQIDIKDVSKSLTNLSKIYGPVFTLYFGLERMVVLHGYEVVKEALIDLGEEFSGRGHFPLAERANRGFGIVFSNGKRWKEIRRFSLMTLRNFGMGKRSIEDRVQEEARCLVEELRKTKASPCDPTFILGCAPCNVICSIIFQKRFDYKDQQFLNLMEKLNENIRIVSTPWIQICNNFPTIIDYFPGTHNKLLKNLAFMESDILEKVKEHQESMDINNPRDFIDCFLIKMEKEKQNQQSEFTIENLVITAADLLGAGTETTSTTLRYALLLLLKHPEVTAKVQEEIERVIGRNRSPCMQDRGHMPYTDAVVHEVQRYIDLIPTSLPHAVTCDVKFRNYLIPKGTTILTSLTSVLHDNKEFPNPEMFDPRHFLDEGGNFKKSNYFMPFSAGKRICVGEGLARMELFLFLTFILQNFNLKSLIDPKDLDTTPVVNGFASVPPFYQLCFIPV

SMILES | activity at 0.25 h, 10 µM
C=CC(=O)Nc1cc2c(Nc3ccc(F)c(Cl)c3)ncnc2cc1OCc1cn(Cc2ccc(F)cc2)nn1 | 51.1%
C=CC(=O)Nc1cc2c(Nc3ccc(F)c(Cl)c3)ncnc2cc1OCc1cn(Cc2ccc(Cl)cc2)nn1 | 56.4%
C=CC(=O)Nc1cc2c(Nc3ccc(F)c(Cl)c3)ncnc2cc1OCc1cn(Cc2cccc(F)c2)nn1 | 53.5%

biological target: Receptor tyrosine-protein kinase erbB-2 (Homo sapiens, UniProt P04626); experiment: Inhibition of human C-terminal His6-tagged ERBB2 (676 to end residues) expressed in baculovirus infected sf21 cells using poly(Glu, Tyr) 4:1 as substrate; conditions: not given
Sequence (P04626 whole entry): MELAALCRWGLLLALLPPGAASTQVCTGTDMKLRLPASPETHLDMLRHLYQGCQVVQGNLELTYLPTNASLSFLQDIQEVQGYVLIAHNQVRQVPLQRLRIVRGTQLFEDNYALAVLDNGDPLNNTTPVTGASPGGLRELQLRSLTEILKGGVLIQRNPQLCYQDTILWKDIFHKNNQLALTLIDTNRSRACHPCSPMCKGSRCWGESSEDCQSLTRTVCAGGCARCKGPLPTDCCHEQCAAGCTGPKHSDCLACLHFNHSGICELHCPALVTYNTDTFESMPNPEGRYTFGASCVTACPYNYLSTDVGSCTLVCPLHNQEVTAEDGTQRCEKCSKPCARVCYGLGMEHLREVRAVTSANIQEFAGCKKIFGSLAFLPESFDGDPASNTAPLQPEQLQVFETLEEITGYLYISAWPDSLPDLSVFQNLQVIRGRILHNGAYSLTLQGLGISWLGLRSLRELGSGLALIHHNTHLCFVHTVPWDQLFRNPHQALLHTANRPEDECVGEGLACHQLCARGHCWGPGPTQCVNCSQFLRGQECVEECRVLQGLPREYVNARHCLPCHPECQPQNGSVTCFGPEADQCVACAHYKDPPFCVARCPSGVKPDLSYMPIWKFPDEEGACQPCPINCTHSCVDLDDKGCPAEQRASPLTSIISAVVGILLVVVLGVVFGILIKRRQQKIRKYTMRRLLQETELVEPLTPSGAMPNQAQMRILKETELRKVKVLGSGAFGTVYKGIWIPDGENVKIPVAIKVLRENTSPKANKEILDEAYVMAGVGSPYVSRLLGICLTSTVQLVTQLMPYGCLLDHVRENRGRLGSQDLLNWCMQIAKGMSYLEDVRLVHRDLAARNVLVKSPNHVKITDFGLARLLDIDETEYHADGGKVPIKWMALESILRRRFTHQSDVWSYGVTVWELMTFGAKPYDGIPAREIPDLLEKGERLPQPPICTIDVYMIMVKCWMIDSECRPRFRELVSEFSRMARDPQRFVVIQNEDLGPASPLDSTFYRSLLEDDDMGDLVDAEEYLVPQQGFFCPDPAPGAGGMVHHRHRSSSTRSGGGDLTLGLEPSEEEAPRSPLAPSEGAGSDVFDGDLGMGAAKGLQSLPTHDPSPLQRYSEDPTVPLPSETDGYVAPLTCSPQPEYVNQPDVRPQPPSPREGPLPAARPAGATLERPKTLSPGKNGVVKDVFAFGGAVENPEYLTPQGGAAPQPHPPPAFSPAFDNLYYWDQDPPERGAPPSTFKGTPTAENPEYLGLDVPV

SMILES | pIC50
C=CC(=O)Nc1cc2c(Nc3ccc(F)c(Cl)c3)ncnc2cc1OCc1cn(Cc2ccc(F)cc2)nn1 | 6.67
C=CC(=O)Nc1cc2c(Nc3ccc(F)c(Cl)c3)ncnc2cc1OCc1cn(Cc2ccc(Cl)cc2)nn1 | 6.65
C=CC(=O)Nc1cc2c(Nc3ccc(F)c(Cl)c3)ncnc2cc1OCc1cn(Cc2cccc(F)c2)nn1 | 6.68

biological target: Epidermal growth factor receptor (Homo sapiens, UniProt P00533, L858R/T790M); experiment: biochemical; format: cell-based, Sf21; conditions: not given

SMILES | pIC50
C=CC(=O)Nc1cc2c(Nc3ccc(F)c(Cl)c3)ncnc2cc1OCc1cn(Cc2ccc(F)cc2)nn1 | 8.22
C=CC(=O)Nc1cc2c(Nc3ccc(F)c(Cl)c3)ncnc2cc1OCc1cn(Cc2ccc(Cl)cc2)nn1 | 7.92
C=CC(=O)Nc1cc2c(Nc3ccc(F)c(Cl)c3)ncnc2cc1OCc1cn(Cc2cccc(F)c2)nn1 | 8.40

biological target: T2, CYP1A2 (Homo sapiens, UniProt P05177); experiment: Inhibition of CYP1A2 in human liver microsomes assessed as residual activity at 10 uM using phenacetin as substrate preincubated for 5 mins followed by NADPH addition and measured after 15 mins by LC-MS/MS analysis relative to control; format: ADME; conditions: probe phenacetin, read-out: Activity
T2 sequence (P05177 whole entry): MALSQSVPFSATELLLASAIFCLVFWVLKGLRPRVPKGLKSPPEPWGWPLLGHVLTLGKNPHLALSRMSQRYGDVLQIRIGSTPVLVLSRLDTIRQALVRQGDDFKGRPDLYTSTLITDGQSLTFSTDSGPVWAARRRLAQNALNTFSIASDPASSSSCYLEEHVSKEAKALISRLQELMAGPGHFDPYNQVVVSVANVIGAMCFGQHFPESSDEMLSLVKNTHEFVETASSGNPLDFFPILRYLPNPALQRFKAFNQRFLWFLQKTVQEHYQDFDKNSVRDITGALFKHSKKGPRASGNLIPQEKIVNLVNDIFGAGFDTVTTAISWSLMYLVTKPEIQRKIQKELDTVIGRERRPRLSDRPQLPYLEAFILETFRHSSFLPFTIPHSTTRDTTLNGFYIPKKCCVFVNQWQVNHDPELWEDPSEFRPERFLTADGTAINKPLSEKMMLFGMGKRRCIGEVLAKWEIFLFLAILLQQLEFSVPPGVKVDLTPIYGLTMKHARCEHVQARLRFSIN

SMILES | activity at 0.25 h, 10 µM
C=CC(=O)Nc1cc2c(Nc3ccc(F)c(Cl)c3)ncnc2cc1OCc1cn(Cc2ccc(F)cc2)nn1 | 51.1%
C=CC(=O)Nc1cc2c(Nc3ccc(F)c(Cl)c3)ncnc2cc1OCc1cn(Cc2ccc(Cl)cc2)nn1 | 60.8%
C=CC(=O)Nc1cc2c(Nc3ccc(F)c(Cl)c3)ncnc2cc1OCc1cn(Cc2cccc(F)c2)nn1 | 52.5%

biological target: T3, CYP2B6 (Homo sapiens, UniProt P20813); experiment: Inhibition of CYP2B6 in human liver microsomes assessed as residual activity at 10 uM using bupropion as substrate preincubated for 5 mins followed by NADPH addition and measured after 15 mins by LC-MS/MS analysis relative to control; format: ADME; conditions: probe bupropion, read-out: Activity
T3 sequence (P20813 whole entry): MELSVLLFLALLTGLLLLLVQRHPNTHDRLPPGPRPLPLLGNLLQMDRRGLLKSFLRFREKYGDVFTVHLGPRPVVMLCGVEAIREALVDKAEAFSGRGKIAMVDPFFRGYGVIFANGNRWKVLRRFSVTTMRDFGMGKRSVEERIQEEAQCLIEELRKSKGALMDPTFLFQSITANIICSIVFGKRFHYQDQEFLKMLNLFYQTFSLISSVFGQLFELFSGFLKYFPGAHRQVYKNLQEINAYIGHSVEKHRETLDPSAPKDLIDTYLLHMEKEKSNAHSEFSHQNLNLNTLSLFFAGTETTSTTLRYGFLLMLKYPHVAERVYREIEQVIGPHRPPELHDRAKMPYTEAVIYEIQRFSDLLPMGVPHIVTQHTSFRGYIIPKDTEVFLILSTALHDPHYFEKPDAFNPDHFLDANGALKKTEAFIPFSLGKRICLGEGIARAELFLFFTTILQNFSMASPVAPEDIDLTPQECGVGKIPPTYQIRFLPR

SMILES | activity at 0.25 h, 10 µM
C=CC(=O)Nc1cc2c(Nc3ccc(F)c(Cl)c3)ncnc2cc1OCc1cn(Cc2ccc(F)cc2)nn1 | 67.9%
C=CC(=O)Nc1cc2c(Nc3ccc(F)c(Cl)c3)ncnc2cc1OCc1cn(Cc2ccc(Cl)cc2)nn1 | 78.8%
C=CC(=O)Nc1cc2c(Nc3ccc(F)c(Cl)c3)ncnc2cc1OCc1cn(Cc2cccc(F)c2)nn1 | 67.1%

biological target: CYP2C9 (Homo sapiens, UniProt P11712); experiment: Inhibition of CYP2C9 in human liver microsomes assessed as residual activity at 10 uM using tolbutamide as substrate preincubated for 5 mins followed by NADPH addition and measured after 15 mins by LC-MS/MS analysis relative to control; format: ADME; conditions: probe tolbutamide, read-out: Activity
Sequence (P11712 whole entry): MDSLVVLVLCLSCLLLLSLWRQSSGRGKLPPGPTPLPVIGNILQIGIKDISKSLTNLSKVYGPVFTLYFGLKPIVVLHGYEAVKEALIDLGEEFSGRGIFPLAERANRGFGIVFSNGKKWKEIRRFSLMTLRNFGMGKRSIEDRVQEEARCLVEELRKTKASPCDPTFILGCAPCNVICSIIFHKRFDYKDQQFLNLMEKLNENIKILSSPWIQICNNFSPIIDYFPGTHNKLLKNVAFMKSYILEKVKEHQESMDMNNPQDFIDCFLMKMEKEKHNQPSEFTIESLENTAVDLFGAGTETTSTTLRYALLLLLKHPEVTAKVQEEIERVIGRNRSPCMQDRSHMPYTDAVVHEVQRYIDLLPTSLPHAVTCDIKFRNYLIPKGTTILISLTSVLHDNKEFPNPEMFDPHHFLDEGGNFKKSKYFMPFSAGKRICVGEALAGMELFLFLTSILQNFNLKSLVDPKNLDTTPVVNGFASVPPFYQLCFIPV

SMILES | activity at 0.25 h, 10 µM
C=CC(=O)Nc1cc2c(Nc3ccc(F)c(Cl)c3)ncnc2cc1OCc1cn(Cc2ccc(F)cc2)nn1 | 13.5%
C=CC(=O)Nc1cc2c(Nc3ccc(F)c(Cl)c3)ncnc2cc1OCc1cn(Cc2ccc(Cl)cc2)nn1 | 16.3%
C=CC(=O)Nc1cc2c(Nc3ccc(F)c(Cl)c3)ncnc2cc1OCc1cn(Cc2cccc(F)c2)nn1 | 11.8%

system: SK-BR-3; experiment: Antiproliferative activity against HER2-dependant human SKBR3 cells after 72 hrs by EZ-Cytox assay; format: ADME, cell-based; conditions: SK-BR-3, 72 h

SMILES | pIC50
C=CC(=O)Nc1cc2c(Nc3ccc(F)c(Cl)c3)ncnc2cc1OCc1cn(Cc2ccc(F)cc2)nn1 | 6.84
C=CC(=O)Nc1cc2c(Nc3ccc(F)c(Cl)c3)ncnc2cc1OCc1cn(Cc2ccc(Cl)cc2)nn1 | 6.58
C=CC(=O)Nc1cc2c(Nc3ccc(F)c(Cl)c3)ncnc2cc1OCc1cn(Cc2cccc(F)c2)nn1 | 6.94
